Test results taken from US11873298B2, “Compounds and uses thereof” (JANSSEN PHARMACEUTICA NV, priority 2017, dated 2024).

Legend:
SCD5 = biological target: T1, SCD5 (Homo sapiens, UniProt Q86SK9); assay: Growth inhibition of humanized yeast strain expressing SCD5 as sole desaturase; format: cell-based
T1 construct: host or cells: S. cerevisiae ole1Δ strain (W303 pdr1Δ pdr3Δ background), plasmid pRS316 with TDH3 promoter and CYC1 terminator
T1 sequence (Q86SK9 1-330): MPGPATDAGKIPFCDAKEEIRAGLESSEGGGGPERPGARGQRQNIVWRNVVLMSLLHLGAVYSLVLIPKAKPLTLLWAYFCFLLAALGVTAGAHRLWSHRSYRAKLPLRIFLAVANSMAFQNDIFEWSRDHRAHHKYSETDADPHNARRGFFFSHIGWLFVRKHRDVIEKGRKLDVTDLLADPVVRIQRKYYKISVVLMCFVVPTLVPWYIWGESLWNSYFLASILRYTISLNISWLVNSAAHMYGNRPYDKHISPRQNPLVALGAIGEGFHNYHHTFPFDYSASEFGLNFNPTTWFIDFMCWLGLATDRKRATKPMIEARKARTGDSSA
How it was run: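 ole1Δ yeast (W303 pdr1Δ pdr3Δ background) carrying plasmid-borne Ole1, SCD1 or SCD5, grown in uracil-free media; cultures pre-grown in raffinose, seeded at 2× density 0.02 in galactose media with compound. Growth read as OD600 after 24 h at 30° C. for Ole1, 40 h for SCD1/SCD5.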

SCD1 = biological target: T2, SCD1 (Homo sapiens, UniProt O00767); assay: Growth inhibition of humanized yeast strain expressing SCD1 as sole desaturase; format: cell-based
T2 construct: host or cells: S. cerevisiae ole1Δ strain (W303 pdr1Δ pdr3Δ background), plasmid pRS316 with TDH3 promoter and CYC1 terminator
T2 sequence (O00767 1-359): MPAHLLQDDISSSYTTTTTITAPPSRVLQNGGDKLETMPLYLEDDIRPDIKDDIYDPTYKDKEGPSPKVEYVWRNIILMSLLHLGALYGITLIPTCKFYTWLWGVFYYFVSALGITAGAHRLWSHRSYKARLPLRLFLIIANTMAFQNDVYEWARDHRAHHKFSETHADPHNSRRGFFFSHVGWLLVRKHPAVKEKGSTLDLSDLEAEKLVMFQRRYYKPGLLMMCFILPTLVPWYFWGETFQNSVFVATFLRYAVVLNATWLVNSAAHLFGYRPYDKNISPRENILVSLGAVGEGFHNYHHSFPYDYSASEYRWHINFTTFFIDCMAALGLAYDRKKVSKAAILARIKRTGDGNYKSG
Description: Strain oleΔ (yeast ole1 deletion mutant) was constructed by deleting OLE1 with NAT-MX6 in BY4741, amplifying the deletion cassette from the genomic DNA of the resulting strain with primers flanking the ORF by 1000 bp upstream and downstream, transforming the resulting deletion cassette into W303 pdr1Δ pdr3Δ, and plating transformants on YPD media containing G418 (200 μg/mL) and nourseothricin ([…]) with 0.01% TWEEN®-20 and 0.5 mM oleic and palmitoleic acids.
The coding sequence of yeast OLE1 was also cloned into this plasmid). These clones were then transformed into the ole1Δ strain and plated on CSM-Ura media (CSM lacking uracil) with 2% glucose (w/v) and independent colonies were isolated and amplified.
All compound profiling experiments were performed using the same basic protocol. Different genetic backgrounds (e.g., gene deletions) or conditions (e.g., addition of oleic and palmitoleic acid) were replaced as indicated below.
Yeast were cultured using standard techniques in complete synthetic media (CSM) and yeast nitrogen base supplemented with 2% (w/v) carbon source (glucose, raffinose, or galactose) to regulate the expression of the toxic disease protein. An initial starter culture was inoculated in 3 mL CSM-Glucose media and incubated overnight in a 30° C. shaker incubator (225 rpm). Saturated morning cultures were then diluted 1:20 in fresh CSM-Raffinose media and grown for 6 h to an OD600 (optical density) of ˜0.4-0.8 at 30° C. with shaking.
Compound administration was performed in two separate steps. First, 15 μL of CSM-Galactose (induces expression of toxic protein) was dispensed into clear 384 well assay plates using a MULTIDROP™ Combi reagent dispenser. […] The cultures described above were then diluted to a 2× concentration (0.03 and 0.08 for alpha-synuclein and ApoE, final ODsoo of 0.015 and 0.04) in CSM-Galactose. For wild-type and Ole1/SCD1/SCD5 plasmid-containing strains, the 2× cell density was 0.02. […] For 96-well assays (FIGS. 1A and 1B), compound dilutions in DMSO were generated in 96 well plates and 1 μL was manually pipetted into 96 well clear bottom assay plates.
For experiments using a plasmid-borne copy of Ole1, SCD1, or SCD5 (FIGS. 3B, 6, and 7), media lacking uracil (SX-Ura, where X is glucose, raffinose, or galactose), was used for all steps of the compound profiling protocol to ensure its maintenance throughout the assay.
After yeast delivery, assay plates were incubated under humidified conditions at 30° C. for 24 to 40 h. ApoE4 rescue experiments were stopped at 24 h, aSyn experiments at 40 h, Ole1 at 24 h, and SCD1/SCD5 at 40 h. The growth of yeast was monitored by reading the ODsoo of each well using a microplate reader (Perkin Elmer EnVision™).

[1] = growth inhibition of humanized yeast strain expressing human SCD5
[2] = growth inhibition of humanized yeast strain expressing human SCD1
[3] = humanized yeast strain expressing SCD5
[4] = humanized yeast strain expressing SCD1

Structure (SMILES)	IC50 (SCD5; humanized yeast strain, 40 h) [µM]	IC50 (SCD1; humanized yeast strain, 40 h) [µM]	also measured
COc1cc(-c2nc(C3CCN(C(=O)OC(C)(C)C)CC3)no2)cc2c1cnn2C1COC1 [Compound 1076]	1.03	> 45	
CC1(C(=O)N2CCC(c3noc(-c4ccnc(C5CCOC5)c4)n3)CC2)CC1 (centres unmarked) [Compound 1178]	0.63	> 45	
CC(=O)N1CC(n2ncc3ccc(-c4nc(N5CCn6c(Cl)cnc6C5)no4)cc32)C1 [Compound 935]	> 45	> 45	
CC(C)(C)OC(=O)N1CCC(c2noc(-c3ccc(=O)n(C4COC4)c3)n2)CC1 [Compound 1113]	0.494	> 45	
CC(C)C(=O)N1CCC(c2noc(-c3ccnc(-c4ccn(C)n4)c3)n2)CC1 [Compound 1184]	> 45	> 45	
CC(C)(C)OC(=O)N1CC=C(c2nsc(-c3ccc4cnn(C5COC5)c4c3)n2)CC1 [Compound 790]	0.053	> 45	
CC(C)(C)OC(=O)N1CCC(c2noc(-c3cncc(C4CCOC4)c3)n2)CC1 (centres unmarked) [Compound 1190]	0.06	> 45	
CC(C)(C)OC(=O)N1CCC(c2noc(-c3cccc(N4CCOCC4)c3F)n2)CC1 [Compound 1154]	0.0157	> 45	
CC(C)(C)CC(=O)N1CCC(c2nc(-c3ccc4cnn(C(=O)C5CCO5)c4c3)no2)CC1 (centres unmarked) [Compound 727]			IC50 (SCD5; [1]): > 45 µM; IC50 (SCD1; [2]): > 45 µM
CC(C)n1ncc2ccc(-c3noc(C4CCN(C(=O)N5CCC5(C)C)CC4)n3)cc21 [Compound 684]			IC50 (SCD5; [1]): > 45 µM; IC50 (SCD1; [2]): > 45 µM
CC1(OC(=O)N2CCC(c3nc(-c4cccc(C5CCOC5)c4)no3)CC2)CC1 (centres unmarked) [Compound 846]	0.04	> 45	
O=C(c1ccccc1)N1CCC(c2noc(-c3ccc4cnn(C5COC5)c4c3)n2)CC1 [Compound 685]			IC50 (SCD5; [1]): 0.184 µM; IC50 (SCD1; [2]): > 45 µM
CC(C)n1nc(CCS(C)(=O)=O)c2ccc(-c3noc(C4CCN(C(=O)OC(C)(C)C)CC4)n3)cc21 [Compound 766]	> 45	> 45	
CC(C)(C)OC(=O)N1CCC(c2noc(-c3cccc(N4CCOCC4)c3)n2)CC1 [Compound 979]	0.168	> 45	
C[C@H]1C[C@H](c2noc(-c3ccc4cnn(C5COC5)c4c3)n2)CCN1C(=O)C1(F)CC1 [Compound 1053]	0.00118	> 45	
COC(=O)N1CCC(c2noc(-c3cc(C)c4cnn(C5COC5)c4c3)n2)CC1 [Compound 1070]	0.081	> 45	
c1cc2cnn(C3COC3)c2cc1-c1nc(C2CCNCC2)no1 [Compound 752]	> 45	> 45	
CCC1(C(=O)N2CCC(c3noc(-c4ccc5cnn(C6COC6)c5c4)n3)CC2)CC1 [Compound 964]	0.03	0.31	
COC(=O)N1CCC(c2noc(-c3ccn4cnc(C(C)C)c4c3)n2)CC1 [Compound 1045]	0.935	≥ 45	
O=C(CC1CC1)N1CCC(c2noc(-c3ccc4cnn([C@@H]5CCOC5)c4c3)n2)CC1 [Compound 1104]	0.01	> 45	
CC(C)(C)OC(=O)N1CCN(c2nc(-c3ccc4cn(C5CCC5)nc4c3)no2)CC1 [Compound 729]			IC50 (SCD5; [1]): > 45 µM; IC50 (SCD1; [2]): > 45 µM
CC1(OC(=O)N2CCC(c3noc(N4CCc5c(cnn5C5COC5)C4)n3)CC2)CC1 [Compound 1193]	> 45	> 45	

Structure (SMILES)	IC50 (SCD5; humanized yeast strain, 40 h) [µM]	IC50 (SCD1; humanized yeast strain, 40 h) [µM]	also measured
CC(C)c1ncn2ccc(-c3noc(C4CCN(C(=O)OC(C)(C)C)CC4)n3)cc12 [Compound 866]	4.61	> 45	
COCC(C)(C)n1ncc2ccc(-c3noc(N4CCN(C(=O)OC(C)(C)C)CC4)n3)cc21 [Compound 788]	6.22	> 45	
COC(=O)N1CCC(c2noc(-c3ccnc(CC4CC4)c3)n2)CC1 [Compound 1081]	2.43	> 45	
CC(C)n1ncc2ccc(-c3noc(C4CCN(C(=O)OC(C)(C)C)C=C4F)n3)cc21 (centres unmarked) [Compound 660]			IC50 (SCD5; [1]): 14.6 µM; IC50 (SCD1; [2]): > 45 µM
CC1(OC(=O)N2CCC(c3nnc(-c4ccc5cnn(C6COC6)c5c4)o3)CC2)CC1 [Compound 980]	0.877	> 45	
O=C(N1CCN(c2noc(-c3ccnc(NC4COC4)c3)n2)CC1)C1(F)CC1 [Compound 1148]	19.4	> 45	
CC(C)(C)CC(=O)N1CC(c2nc(-c3ccc4cnn(C5COC5)c4c3)no2)C1 [Compound 707]			IC50 (SCD5; [1]): 14.5 µM; IC50 (SCD1; [2]): > 45 µM
CC(C)n1ncc2ccc(-c3noc(C4CCN(C(=O)COc5ccccc5)CC4)n3)cc21 [Compound 358]			IC50 (SCD5; [3]): > 45 µM; SCD5 % Max Inhibition (SCD5; [3]): 4.53%; SCD1 % Max Inhibition (SCD1; [4]): 59.61%
CC(C)C(=O)N1CCC(c2noc(-c3ccnc(N4CCC(F)(F)C4)c3)n2)CC1 [Compound 1170]	0.402	> 45	
CC(C)N1C(=O)Cc2ccc(-c3noc(C4CCN(C(=O)c5ccccc5Cl)CC4)n3)cc21 [Compound 612]			IC50 (SCD5; [1]): 2.38 µM; IC50 (SCD1; [2]): > 45 µM
CC(C)(C)CC(=O)N1CCC(c2nc(-c3ccc4cn(C(=O)C5CC5)nc4c3)no2)CC1 [Compound 674]			IC50 (SCD5; [1]): > 45 µM; IC50 (SCD1; [2]): > 45 µM
CC(C)(C)CC(=O)N1CCC(c2nc(-c3ccc4cnn(C(=O)C5COC5)c4c3)no2)CC1 [Compound 694]			IC50 (SCD5; [1]): > 45 µM; IC50 (SCD1; [2]): > 45 µM
COC(=O)N1CCC(c2noc(-c3ccc(F)c(N4CCOCC4)c3)n2)CC1 [Compound 1161]	0.0363	> 45	
CC(C)(C)OC(=O)N1CCC(c2ccc(-c3ccc4cnn(C5COC5)c4c3)cn2)CC1 [Compound 966]	0.15	> 45	
O=C(CC1CC1)N1CCC(c2noc(-c3ccc4cnn(C5COC5)c4c3)n2)CC1 [Compound 894]	0.07	> 45	
COC1(C2CCN(c3nc(-c4ccc5cnn(C(C)C)c5c4)no3)CC2)COC1 [Compound 830]	> 45	> 45	
CC(C)(C)OC(=O)N1CCC(c2noc(-c3cc(F)c4cnn(C5COC5)c4c3)n2)CC1 [Compound 860]	0.478	> 45	
CC1(C(=O)N2CCN(c3nc(-c4ccc5cnn(C6COC6)c5c4)no3)CC2)CCOC1 (centres unmarked) [Compound 924]	4.09	> 45	
CC(C)(C)OC(=O)N1CCC(c2nc(-c3ccc4cnn([C@H]5C[C@@H](O)C5)c4c3)no2)CC1 [Compound 822]	0.111	> 45	
CC(C)n1ncc2ccc(-c3noc(N4CCN(C(=O)c5cccc(F)c5)CC4)n3)cc21 [Compound 547]			IC50 (SCD5; [3]): 44.3 µM; IC50 (SCD1; [4]): > 45 µM
CC(C)n1cc2c(n1)CN(c1noc(C3CCN(C(=O)OC(C)(C)C)CC3)n1)CC2 [Compound 868]	0.967	> 45	
O=C(c1ccccc1Cl)N1CCN(c2noc(-c3ccc4cnn(C5COC5)c4c3)n2)CC1 [Compound 726]			IC50 (SCD5; [1]): 0.01 µM; IC50 (SCD1; [2]): 5.65 µM
